The values below come from patent US9796733B2, “Imidazo-pyrazine derivatives useful as soluble guanylate cyclase activators” (Merck Sharp & Dohme Corp., priority 2014, dated 2017).

In assay [1] the test system is Spontaneously hypertensive rats (SHR). Description: Acute efficacy in spontaneously hypertensive rats (SHR): telemetry blood pressure lowering after a single oral dose. It is filed as in vivo, rat. An outline of the steps: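 Male SHR carrying aortic telemetry implants (14-day recovery) received a single oral gavage of compound or vehicle (10% transcutol/20% Cremophor/70% water). Conscious blood pressure was sampled 30 s every 10 min and averaged hourly; change was taken against the prior-day vehicle baseline, reported as maximum peak SBP decrease at a given PO dose (mpk).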

The next assay concerns the target T1, sGC α1/β1 heterodimer (Homo sapiens, UniProt Q02108+Q02153).
T1 construct: expressed in transfected cells; host or cells: CHO-K1 (clone #7, CHO-K1/sGC)
T1 sequence (Q02108 1-690): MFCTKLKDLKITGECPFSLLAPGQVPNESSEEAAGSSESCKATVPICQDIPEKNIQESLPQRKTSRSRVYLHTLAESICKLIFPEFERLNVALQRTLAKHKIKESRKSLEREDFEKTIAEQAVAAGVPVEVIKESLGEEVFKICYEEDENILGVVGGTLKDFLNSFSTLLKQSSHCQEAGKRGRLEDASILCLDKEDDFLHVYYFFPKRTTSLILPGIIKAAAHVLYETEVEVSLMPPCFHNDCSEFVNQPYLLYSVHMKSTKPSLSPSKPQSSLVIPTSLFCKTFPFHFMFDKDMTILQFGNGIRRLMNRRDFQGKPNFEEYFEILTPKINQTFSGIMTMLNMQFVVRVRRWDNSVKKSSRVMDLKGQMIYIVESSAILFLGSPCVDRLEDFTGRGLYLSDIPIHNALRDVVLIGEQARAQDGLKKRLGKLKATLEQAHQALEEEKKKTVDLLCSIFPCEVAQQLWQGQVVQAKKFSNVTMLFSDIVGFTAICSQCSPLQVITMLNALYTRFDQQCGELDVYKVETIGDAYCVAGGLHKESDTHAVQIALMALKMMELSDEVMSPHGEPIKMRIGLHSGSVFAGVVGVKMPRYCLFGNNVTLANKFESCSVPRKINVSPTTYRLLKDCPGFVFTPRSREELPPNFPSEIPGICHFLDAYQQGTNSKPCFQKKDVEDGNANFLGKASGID
T1 sequence (Q02153 1-619): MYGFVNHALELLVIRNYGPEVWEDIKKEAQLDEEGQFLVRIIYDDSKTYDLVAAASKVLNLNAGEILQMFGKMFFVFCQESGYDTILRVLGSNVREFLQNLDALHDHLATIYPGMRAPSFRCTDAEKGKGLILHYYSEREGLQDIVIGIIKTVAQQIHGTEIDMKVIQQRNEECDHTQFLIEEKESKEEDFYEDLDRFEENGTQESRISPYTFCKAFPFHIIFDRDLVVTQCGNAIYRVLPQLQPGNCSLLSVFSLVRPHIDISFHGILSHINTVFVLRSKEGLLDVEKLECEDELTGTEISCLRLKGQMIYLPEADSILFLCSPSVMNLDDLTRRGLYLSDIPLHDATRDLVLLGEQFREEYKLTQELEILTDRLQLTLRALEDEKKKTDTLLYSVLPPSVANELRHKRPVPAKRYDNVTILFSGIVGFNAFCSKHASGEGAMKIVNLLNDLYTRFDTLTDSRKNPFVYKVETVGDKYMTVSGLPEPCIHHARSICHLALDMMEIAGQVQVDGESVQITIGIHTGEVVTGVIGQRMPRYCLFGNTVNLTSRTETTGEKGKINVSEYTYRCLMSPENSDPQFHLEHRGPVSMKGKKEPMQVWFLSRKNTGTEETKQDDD
Description: Cell-based sGC functional assay (CASA assay): cGMP generation in CHO-K1/sGC cells, HTRF detection. As to conditions: for Emax: CHO-K1, percent activation relative to standard Compound A in CHO-K1/sGC cells, read-out: % Act.; for EC50: inflection point (IP) of cGMP generation in CHO-K1/sGC cells, 4P fit, activity expressed as percentage of Compound A. In short, it runs like this: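 Stable CHO-K1/sGC cells in EBSS buffer with 5 mM MgCl2, 0.05% BSA and 0.5 mM IBMX were incubated with compound (2.5% DMSO final) ±1 μM DETA-NO for 1 hr at 37° C. cGMP was measured by HTRF. Activation is expressed as % of reference HDA Compound A maximum, with IP and max fold induction from a 4P fit.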

As a reminder, the EC50 is the concentration that produces a half-maximal response. Read a high EC50 as lower potency in that assay. For `CCCc1nc(-c2nc(N)c3c(n2)NC(=O)C3(C)c2ccc(C(F)(F)F)cc2)cn2ccnc12` (stereo not drawn) [Example 131B, 4-amino-5-methyl-2-(8-propylimidazo[1,2-a]pyrazin-6-yl)-5-(4-(trifluoromethyl)phenyl)-5H-pyrrolo[2,3-d]pyrimidin-6(7H)-one], the “Maximum peak decrease of systolic blood pressure (SBP) in SHR, Cat.” value (shortened to “Maximum peak decrease”) in assay [1] (P.O. 1.0 mpk) is “B (Category B=SBP in SHRs 20-40 mmHg)”. Moreover, at sGC α1/β1 heterodimer, the Emax turned out to be 88% and it took 178 nM to reach a half-maximal effect (EC50).
For the compound `CCCc1nc(-c2nc(N)c3c(n2)NC(=O)C3(C)c2ccc(C(F)(F)F)cn2)cn2ccnc12` (stereo not drawn) [Example 132B, 4-amino-5-methyl-2-(8-propylimidazo[1,2-a]pyrazin-6-yl)-5-(5-(trifluoromethyl)pyridin-2-yl)-5H-pyrrolo[2,3-d]pyrimidin-6(7H)-one], in assay [1] (P.O. 3.0 mpk), the “Maximum peak decrease” value is given as “B (Category B=SBP in SHRs 20-40 mmHg)”. For the same compound, at sGC α1/β1 heterodimer, the Emax is 99% and the EC50 came out at 949 nM.
The corresponding values for `CC1(c2ccc(F)cc2)C(=O)Nc2nc(-c3cn4ccnc4cn3)nc(N)c21` (stereo not drawn) [Example 134A, 4-amino-5-(4-fluorophenyl)-2-(imidazo[1,2-a]pyrazin-6-yl)-5-methyl-5H-pyrrolo[2,3-d]pyrimidin-6(7H)one] are “B (Category B=SBP in SHRs 20-40 mmHg)”, 118% and 627 nM.
`CC1(c2ccc(Br)cc2)C(=O)Nc2nc(-c3cn4ccnc4cn3)nc(N)c21` (stereo not drawn) [Example 135A, 4-amino-5-(4-bromophenyl)-2-(imidazo[1,2-a]pyrazin-6-yl)-5-methyl-5H-pyrrolo[2,3-d]pyrimidin-6(7H)-one]: in assay [1] (P.O. 1.0 mpk), the “Maximum peak decrease” value is given as “B (Category B=SBP in SHRs 20-40 mmHg)”. Moreover, at sGC α1/β1 heterodimer, the Emax came out at 148% and a half-maximal effect (EC50) was put at 57 nM.
The corresponding values for `CC1(c2ccc(Cl)cc2F)C(=O)Nc2nc(-c3cn4ccnc4cn3)nc(N)c21` (stereo not drawn) [Example 136A, 4-amino-5-(4-chloro-2-fluorophenyl)-2-(imidazo[1,2-a]pyrazin-6-yl)-5-methyl-5H-pyrrolo[2,3-d]pyrimidin-6(7H)-one] are “B (Category B=SBP in SHRs 20-40 mmHg)”, 129% and 77 nM.
On the same counts, the results for `Nc1nc(-c2cn3ccnc3cn2)nc2c1C(c1ccc(Cl)c(F)c1)(C1CC1)C(=O)N2` (stereo not drawn) [Example 137B, 4-amino-5-(4-chloro-3-fluorophenyl)-5-cyclopropyl-2-(imidazo[1,2-a]pyrazin-6-yl)-5H-pyrrolo[2,3-d]pyrimidin-6(7H)-one] are “B (Category B=SBP in SHRs 20-40 mmHg)”, 108% and 135 nM.
As for `CC1(c2ccc(Cl)c(Cl)c2)C(=O)Nc2nc(-c3cn4ccnc4cn3)nc(N)c21` (stereo not drawn) [Example 138A, 4-amino-5-(3,4-dichlorophenyl)-2-(imidazo[1,2-a]pyrazin-6-yl)-5-methyl-5H-pyrrolo[2,3-d]pyrimidin-6(7H)-one], in assay [1] (P.O. 3.0 mpk), the “Maximum peak decrease” value is “B (Category B=SBP in SHRs 20-40 mmHg)”. On sGC α1/β1 heterodimer, the Emax came to 151% and the EC50 was determined as 369 nM.
The corresponding values for `CC1(c2ccc(F)cc2F)C(=O)Nc2nc(-c3cn4ccnc4cn3)nc(N)c21` (stereo not drawn) [Example 139A, 4-amino-5-(2,4-difluorophenyl)-2-(imidazo[1,2-a]pyrazin-6-yl)-5-methyl-5H-pyrrolo[2,3-d]pyrimidin-6(7H)-one] are “C (Category C=SBP in SHRs>40 mmHg)”, 118% and 222 nM.
As for `CC1(c2ccc(Cl)c(F)c2)C(=O)Nc2nc(-c3cn4ccnc4cn3)nc(N)c21` (stereo not drawn) [Example 140B, 4-amino-5-(4-chloro-3-fluorophenyl)-2-(imidazo[1,2-a]pyrazin-6-yl)-5-methyl-5H-pyrrolo[2,3-d]pyrimidin-6(7H)-one], in assay [1] (P.O. 0.3 mpk), the “Maximum peak decrease” value was “B (Category B=SBP in SHRs 20-40 mmHg)”. In addition, at sGC α1/β1 heterodimer, the Emax turned out to be 107% and a half-maximal response (EC50) required 217 nM.
Consider `CC1(c2ccc(F)c(F)c2)C(=O)Nc2nc(-c3cn4ccnc4cn3)nc(N)c21` (stereo not drawn) [Example 141B, 4-amino-5-(3,4-difluorophenyl)-2-(imidazo[1,2-a]pyrazin-6-yl)-5-methyl-5H-pyrrolo[2,3-d]pyrimidin-6(7H)-one], for which, in assay [1] (P.O. 3.0 mpk), the “Maximum peak decrease” value is listed as “B (Category B=SBP in SHRs 20-40 mmHg)”. Further, at sGC α1/β1 heterodimer, the Emax was determined as 112% and the EC50 is 236 nM.
The corresponding values for `CC1(c2ccc(C(F)(F)F)cc2)C(=O)Nc2nc(-c3cn4ccnc4cn3)nc(N)c21` (stereo not drawn) [Example 143B, 4-amino-2-(imidazo[1,2-a]pyrazin-6-yl)-5-methyl-5-(4-(trifluoromethyl)phenyl)-5H-pyrrolo[2,3-d]pyrimidin-6(7H)-one] are “B (Category B=SBP in SHRs 20-40 mmHg)”, 78% and 252 nM.
Turning to `CC1(c2ccc(Cl)cc2)C(=O)Nc2nc(-c3cn4ccnc4cn3)nc(N)c21` (stereo not drawn) [Example 144A, 4-amino-5-(4-chlorophenyl)-2-(imidazo[1,2-a]pyrazin-6-yl)-5-methyl-5H-pyrrolo[2,3-d]pyrimidin-6(7H)-one], in assay [1] (P.O. 1.0 mpk), the “Maximum peak decrease” value is “B (Category B=SBP in SHRs 20-40 mmHg)”. Also, on sGC α1/β1 heterodimer, the Emax was found to be 117% and a half-maximal response (EC50) required 400 nM.
The corresponding values for `CC1(c2ccc(F)cc2)C(=O)Nc2nc(-c3cn4cc(C(F)(F)F)nc4c(Cc4ccccc4)n3)nc(N)c21` (stereo not drawn) [Example 154A, 4-amino-2-(8-benzyl-2-(trifluoromethyl)imidazo[1,2-a]pyrazin-6-yl)-5-(4-fluorophenyl)-5-methyl-5H-pyrrolo[2,3-d]pyrimidin-6(7H)-one] are “A (Category A=SBP in SHRs<20 mmHg)”, 120% and 85 nM.
As for `CC1(c2ccc(F)cc2)C(=O)Nc2nc(-c3cn4cc(C5CC5)nc4c(CCC(F)(F)C(F)(F)F)n3)nc(N)c21` (stereo not drawn) [Example 157A, 4-amino-2-(2-cyclopropyl-8-(3,3,4,4,4-pentafluorobutyl)imidazo [1,2-a]pyrazin-6-yl)-5-(4-fluorophenyl)-5-methyl-5H-pyrrolo[2,3-d]pyrimidin-6(7H)-one], in assay [1] (P.O. 3.0 mpk), the “Maximum peak decrease” value was “B (Category B=SBP in SHRs 20-40 mmHg)”. In addition, on sGC α1/β1 heterodimer, the Emax came to 90% and the EC50 was 227 nM.
The corresponding values for `CCc1cn2cc(-c3nc(N)c4c(n3)NC(=O)C4(C)c3ccc(F)cc3)nc(CCC(F)(F)C(F)(F)F)c2n1` (stereo not drawn) [Example 159A, 4-amino-2-(2-ethyl-8-(3,3,4,4,4-pentafluorobutyl)imidazo [1,2-a]pyrazin-6-yl)-5-(4-fluorophenyl)-5-methyl-5H-pyrrolo[2,3-d]pyrimidin-6(7H)-one] are “A (Category A=SBP in SHRs<20 mmHg)”, 103% and 552 nM.
As for `CCCCc1nc(-c2nc(N)c3c(n2)NC(=O)C3(C)c2ccc(C(F)(F)F)cn2)cn2cc(C)nc12` (stereo not drawn) [Example 166B, 4-amino-2-(8-butyl-2-methylimidazo[1,2-a]pyrazin-6-yl)-5-methyl-5-(5-(trifluoromethyl)pyridin-2-yl)-5H-pyrrolo[2,3-d]pyrimidin-6(7H)-one], the “Maximum peak decrease” value in assay [1] (P.O. 1.0 mpk) is “A (Category A=SBP in SHRs<20 mmHg)”. Further, on sGC α1/β1 heterodimer, the Emax stood at 94% and it took 120 nM to reach a half-maximal effect (EC50).
